Measurements from patent publication EP1568770A2, “Pharmaceutical use of compounds which bind to a mammalian "trace amine" receptor” (priority 2000, dated 2002).
“Also recorded” adds a separate entry of the source. Like-named read-outs stand apart in the source and are kept apart here.

Key:
[1] = biological target: T1, rat trace amine receptor (Rattus norvegicus, UniProt Q923Y9); assay: cell-based; assay type: cell-based; conditions: for Emax: HEK293, percent of stimulation by p-tyramine, read-out: Maximal Stimulation (%±SEM)
T1 construct: HEK293 cells stably transfected with the pcDNA3.1/V5/His-TOPO expression vector containing the full-length rat cDNA clone described above; expressed in transfected cells

[2] = test system: human trace amine receptor; assay type: cell-based; conditions: luciferase reporter; HEK 293 cells transfected with H2-3pcDNA3.1
[3] = test system: HEK 293 cells; assay type: cell-based, human; conditions: luciferase reporter; control cells transfected with pcDNA3.1
From the text: Control cells were transfected with pcDNA3.1 without the rat trace amine receptor sequences. All cells were also co-transfected with 2 additional constructs: one (elk-gal) that encoded the yeast transcription factor gal under the transcriptional control of an Elk-responsive promoter; and another encoding firefly luciferase under the transcriptional control of a gal-responsive promoter. […]

[4] = Table III, cAMP, 1 hour at 37°C, 100 µM IBMX, read-out: EC50 (nM±SEM)
[5] = untitled table after Table III, DRUGS, read-out: EC50

T1 sequence (Q923Y9 whole entry): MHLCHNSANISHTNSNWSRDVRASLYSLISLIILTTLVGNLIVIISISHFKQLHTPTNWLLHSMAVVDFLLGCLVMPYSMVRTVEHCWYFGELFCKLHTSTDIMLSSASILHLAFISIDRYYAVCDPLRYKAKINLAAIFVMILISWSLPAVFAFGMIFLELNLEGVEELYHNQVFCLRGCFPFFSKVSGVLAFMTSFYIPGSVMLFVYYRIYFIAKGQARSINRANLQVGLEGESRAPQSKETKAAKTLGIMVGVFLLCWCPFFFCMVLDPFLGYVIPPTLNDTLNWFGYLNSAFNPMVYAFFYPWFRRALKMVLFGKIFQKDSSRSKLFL

CCNC(C)Cc1cccc(C(F)(F)F)c1 (racemic) [(±)fenfluramine]
activation of the trace amine receptor / cAMP production, in words [1]: substantially lower activities

NCCc1c[nH]c2ccccc12 [Tryptamine]
Emax ([1]; Table III): 90 ± 6%
EC50 [1, 4]: 309 ± 76 nM

NC[C@H](O)c1ccc(O)c(O)c1 [Norepinephrine]
fold stimulation for each potential ligand compared with cells incubated in the absence of the ligand, H2-3 pcDNA3.1 [2]: 1.69 fold
fold stimulation for each potential ligand compared with cells incubated in the absence of the ligand, pcDNA3.1 [3]: 1.3 fold

C[C@@H](CO)NC(=O)[C@@H]1C=C2c3cccc4[nH]cc(c34)C[C@H]2N(C)C1 [Ergotmetrine, ergometrine]
activation of the trace amine receptor / cAMP production, in words [1]: potently activate

COc1cc(CC(=O)O)ccc1O [homovanillic acid, 3-methoxy-4-hydroxyphenylacetic acid]
activation of the trace amine receptor / cAMP production, in words [1]: no detectible activity

CN1CC=C(c2ccccc2)CC1 [MPTP, 1-methyl-4-phenyl-1,2,3,6-tetrahydropyridine]
activation of the trace amine receptor / cAMP production, in words [1]: stimulate camp production
Emax ([1]; Table III): 93 ± 7%

c1ccc(CC2=NCCN2)cc1 [Tolazoline]
activation of the trace amine receptor / cAMP production, in words [1]: stimulate camp production

NC1CCc2cc(O)c(O)cc2C1 (stereo not drawn) [ADTN67]
fold stimulation for each potential ligand compared with cells incubated in the absence of the ligand, H2-3 pcDNA3.1 [2]: 1.93 fold
fold stimulation for each potential ligand compared with cells incubated in the absence of the ligand, pcDNA3.1 [3]: 0.78 fold

COc1cc(CCN)ccc1O [3-methoxytyramine]
activation of the trace amine receptor / cAMP production, in words [1]: efficacious activators
activation of the trace amine receptor / cAMP production, in words ([1]; listed as 3-MT): potent and efficacious agonist

CCN(CC)C(=O)[C@@H]1C=C2c3cccc4[nH]cc(c34)C[C@H]2N(C)C1 [D-LSD]
activation of the trace amine receptor / cAMP production, in words [1]: potently activate

Cc1ccc(N(CC2=NCCN2)c2cccc(O)c2)cc1 [Phentolamine]
activation of the trace amine receptor / cAMP production, in words [1]: stimulate camp production

CC(N)Cc1ccc(O)cc1 (stereo not drawn) [4-hydroxyamphetamine, α-methyl-p-tyramine]
activation of the trace amine receptor / cAMP production, in words [1]: most potent agonist
Emax ([1]; Table III): 79 ± 2%
EC50 [1, 4]: 51 ± 12 nM

CN1C[C@H](C(=O)N[C@]2(C)O[C@@]3(O)[C@@H]4CCCN4C(=O)[C@H](Cc4ccccc4)N3C2=O)C[C@@H]2c3cccc4[nH]cc(c34)C[C@H]21 [dihydroergotamine]
activation of the trace amine receptor / cAMP production, in words [1]: potently activate; also recorded: stimulate camp production

NCCc1c[nH]cn1 [histamine]
activation of the trace amine receptor / cAMP production, in words [1]: not activated

CNC(C)Cc1ccc2c(c1)OCO2 (racemic) [MDMA]
activation of the trace amine receptor / cAMP production, in words [1]: potently stimulated cAMP production
Emax ([1]; Table III): 65 ± 13%
EC50 [1, 4]: 1750 ± 1150 nM
EC50 [1, 5]: 179 nM

C=CCN1CCc2c(cc(O)c(O)c2Cl)C(c2ccccc2)C1 (stereo not drawn) [SKF82958]
fold stimulation for each potential ligand compared with cells incubated in the absence of the ligand, H2-3 pcDNA3.1 [2]: 2.52 fold

NCCc1cccc(O)c1 [m-tyramine]
Emax ([1]; Table III): 74 ± 3%

CN(C)CCCN1c2ccccc2Sc2ccc(Cl)cc21 [chlorpromazine]
activation of the trace amine receptor / cAMP production, in words [1]: weak agonist

CN1Cc2c(N)cccc2C(c2ccccc2)C1 (stereo not drawn) [nomifensine]
activation of the trace amine receptor / cAMP production, in words [1]: stimulate camp production

NCCCC(=O)O [GABA]
activation of the trace amine receptor / cAMP production, in words [1]: not activated

CN1C[C@H](CNC(=O)OCc2ccccc2)C[C@@H]2c3cccc4c3c(cn4C)C[C@H]21 [metergoline]
activation of the trace amine receptor / cAMP production, in words [1]: stimulate camp production

NCCc1c[nH]c2ccc(O)cc12 [Serotonin, 5-hydroxytryptamine]
fold stimulation for each potential ligand compared with cells incubated in the absence of the ligand, pcDNA3.1 [3]: 1 fold
Emax ([1]; Table III): 47 ± 9%

COc1cc(C(O)CN)ccc1O (stereo not drawn) [normetanephrine, 3-methoxy-β-4-dihydroxy-β-phenethlamine]
activation of the trace amine receptor / cAMP production, in words [1]: efficacious activators

NCCc1ccccc1 [Phenethylamine, β-phenethylamine]
Emax ([1]; Table III): 76 ± 16%

CCNC(C)Cc1ccccc1 (racemic) [(±)N-ethylamphetamine]
activation of the trace amine receptor / cAMP production, in words [1]: substantially lower activities

NCCc1ccc(O)cc1 [p-tyramine]
EC50 ([1]; read-out: EC50 (nM±SEM)): 69 ± 9 nM

CNCC(O)c1ccc(O)cc1 (stereo not drawn) [Synephrine]
Emax ([1]; Table III): 90 ± 2%

CN1CCCC1c1cccnc1 (stereo not drawn) [nicotine]
activation of the trace amine receptor / cAMP production, in words [1]: not activated

C[C@@H](N)Cc1ccc(O)cc1 [R-OH amphetamine]
EC50 [1, 5]: 11.3 nM

CN[C@@H](C)Cc1ccccc1 [methamphetamine]
activation of the trace amine receptor / cAMP production, in words [1]: potently stimulated cAMP production

COc1cc(CC(C)N)c(OC)cc1I (stereo not drawn) [2-amino,(1-[2,5-dimethoxy-4-iodophenyl]propane]
activation of the trace amine receptor / cAMP production, in words [1]: activate the receptor

CN1CC[C@]23c4c5ccc(O)c4O[C@H]2[C@@H](O)C=C[C@H]3[C@H]1C5 [morphine]
activation of the trace amine receptor / cAMP production, in words [1]: not activated

CN[C@H](C)Cc1ccccc1 [R-methamphetamine]
EC50 [1, 5]: 236 nM

CC(C)C[C@H]1C(=O)N2CCC[C@H]2[C@]2(O)O[C@](NC(=O)[C@@H]3C=C4c5cccc6[nH]c(Br)c(c56)C[C@H]4N(C)C3)(C(C)C)C(=O)N12 [Bromocryptine, bromocriptine]
activation of the trace amine receptor / cAMP production, in words [1]: potently activate

NCC(O)c1ccc(O)cc1 (stereo not drawn) [Octopamine]
Emax ([1]; Table III): 102 ± 3%
EC50 ([1]; read-out: EC50 (nM±SEM)): 1300 ± 350 nM

CNCC(O)c1ccc(O)c(OC)c1 (stereo not drawn) [metanephrine, 3-methoxy-β-4-dihydroxy-N-methyl-β-phenethylamine]
activation of the trace amine receptor / cAMP production, in words [1]: efficacious activators
